Legend:
muscarinic receptor = format: cell-based, mouse
[1] = tested on: nerve cells differentiated from NVDCC-deficient mouse hippocampus-derived neural stem cells; format: cell-based
[2] = tested on: NVDCC-deficient mouse-derived neural stem cells; format: cell-based

`C[C@@H]1O[C@H](C[N+](C)(C)C)C[C@H]1O` [muscarine] was tested, and the “reaction of differentiated neurons (calcium fluorescence)” value (muscarinic receptor) was “reacted”.
tetradotoxin [TTX] was tested, and the “activity potential of the differentiated neurons (spike frequency)” value [1] was “suppressed”.
`Nc1ccncc1` [4-AP, 4-aminopyridine] was tested, and the “activity potential of the differentiated neurons (spike frequency)” value [1] was “significantly increased”.
`CC1=C(/C=C/C(C)=C/C=C/C(C)=C/C(=O)O)C(C)(C)CCC1` [ATRA, all-trans retinoic acid] was tested, and the differentiation on induction [2] was “most cells differentiated into MAP2 (microtubule-associated protein 2)-positive nerve cells”.
With `CN1CCCC1c1cccnc1` (centres unmarked) [nicotine] the “reaction of differentiated neurons (calcium fluorescence)” value (nicotinic receptor) was “reacted”.
